Reference: US11427807B2, “Serum-free medium containing PDGF for DS cells” (Shiseido Company, Ltd., priority 2013, dated 2022)

Test system: dermal sheath (DS) cells
Test: Growth of DS cells using serum-free medium
Type: cell-based, human
Conditions: culturing in serum-free medium containing added PDGF
Protocol: A 12-well plate (BD) was coated with CELLStart™ (Life Technologies), and cryopreserved DS cells (from person scalp, DSC, passage number: 0) were suspended in 1 ml of serum-free medium and seeded on the plate at 4×10^4 cells per well. The serum-free media used were 1) HFDM-1(−) medium (Cell Science & Technology Institute), 2) HFDM-1(+) medium (Cell Science & Technology Institute), 3) PDGF-AA (10 ng/ml)-dissolved HFDM-1(−) medium and 4) PDGF-BB (10 ng/ml)-dissolved HFDM-1(−) medium. Culturing was conducted at 37° C. in the presence of 5% carbon dioxide gas. The cells were observed under microscopy on days 2, 5 and 10 (FIG. 1: 40×), and the number of cells per visual field was counted (FIG. 2).
A 12-well plate (BD) was coated with CELLStart™ (Life Technologies), and cryopreserved DS cells (from person scalp, DSC, passage number: 0) were suspended in 1 ml of serum-free medium and seeded on the plate at 4×10^4 cells per well. The serum-free media used were 1) StemProSFM CTS (sup+, Life Technologies), 2) PDGF-BB (10 ng/ml)-dissolved StemProSFM CTS (sup+, Life Technologies) and 3) Mosaic hMSC SF Culture Medium (sup+, BD) and 4) PDGF-BB (10 ng/ml)-dissolved Mosaic hMSC SF Culture Medium (sup+, BD). […] The cells were observed under microscopy on days 2 and 7 (FIG. 3: 40×), and the number of cells per visual field was counted (FIG. 4). […]

## PDGF
  growth of DS cells (number of cells per visual field): significantly grow DS cells
